Measured values from ChEMBL document CHEMBL1127971, “Novel conformationally constrained HIV-1 protease inhibitors: rational design, enzyme inhibition, and X-ray structure of an enzyme-inhibtor complex” (Bioorg Med Chem Lett, 1994).

What follows are compounds tested against Human immunodeficiency virus type 1 protease (Human immunodeficiency virus 1, UniProt Q72874) (assay: Inhibition of human immunodeficiency virus type 1 (HIV-1) protease).
For `CC(C)[C@H](NC(=O)OCc1ccccc1)C(=O)N[C@@H](Cc1ccccc1)[C@]1(O)CCN([C@@H](Cc2ccccc2)C(=O)N[C@H]2c3ccccc3C[C@H]2O)C1`, the IC50 was 0.22 µM. `CC(C)(C)NC(=O)[C@H](CC1CCCCC1)N1CC[C@@](O)([C@H](Cc2ccccc2)NC(=O)OC(C)(C)C)C1` showed an IC50 of 37 µM. With `CC(C)(C)OC(=O)N[C@@H](Cc1ccccc1)[C@]1(O)CCCN([C@@H](Cc2ccccc2)C(=O)N[C@H]2c3ccccc3C[C@H]2O)C1` the IC50 was greater than 100 µM. Work on `CC(C)C[C@@H](C(=O)NC(C)(C)C)N1CCC[C@@](O)([C@H](Cc2ccccc2)NC(=O)OC(C)(C)C)C1` yielded an IC50 greater than 100 µM. Compound `CC(C)(C)NC(=O)[C@H](CC1CCCCC1)N1CCC[C@](O)([C@H](Cc2ccccc2)NC(=O)OC(C)(C)C)C1` has an IC50 greater than 100 µM. Compound `CC(C)(C)OC(=O)N[C@@H](Cc1ccccc1)C1(O)CCN([C@@H](Cc2ccccc2)C(=O)N[C@H]2c3ccccc3C[C@H]2O)CC1` has an IC50 of 1.46 µM. For `CC(C)(C)OC(=O)N[C@@H](Cc1ccccc1)[C@@]1(O)CCN([C@@H](Cc2ccccc2)C(=O)N[C@H]2c3ccccc3C[C@H]2O)C1`, the IC50 was 6 µM. In the case of `CC(C)(C)OC(=O)N[C@@H](Cc1ccccc1)[C@]1(O)CCN([C@@H](Cc2ccccc2)C(=O)N[C@H]2c3ccccc3C[C@H]2O)C1`, the IC50 is reported as 0.6 µM. `CC(C)C[C@@H](C(=O)NC(C)(C)C)N1CCC(O)([C@H](Cc2ccccc2)NC(=O)[C@@H](NC(=O)OCc2ccccc2)C(C)C)CC1` gave an IC50 of 26.7 µM. For `O=C(N[C@@H](Cc1ccccc1)C1(O)CCN([C@@H](Cc2ccccc2)C(=O)N[C@H]2c3ccccc3C[C@H]2O)CC1)O[C@H]1CCOC1`, the IC50 was 29.7 µM. For `CC(C)[C@H](NC(=O)OCc1ccccc1)C(=O)N[C@@H](Cc1ccccc1)C1(O)CCN(CCc2ccccc2)CC1`, the IC50 was 38.7 µM. With `CC(C)(C)NC(=O)[C@H](CC1CCCCC1)N1CCC(O)([C@H](Cc2ccccc2)NC(=O)OC(C)(C)C)CC1` the IC50 was greater than 100 µM.
